# Test results published in patent publication US10781214B2, “Kinase inhibitor against wild-type and mutant EGFR” (PRECEDO PHARMACEUTICALS CO., LTD, priority 2015, dated 2020).
# What was measured:
# Format in all cases: cell-based
# [1] = system: A549 (expressing wild-type EGFR gene); assay: Cancer cell growth, Cell Titer-Glo, 72 h: A549; conditions: Homo sapiens; A549 cells, 72 h; read-out: GI50
# Source text: (§1) Compounds of the present invention were further evaluated for their selectivity in inhibiting proliferation of cancer cells by testing effects of the novel kinase inhibitors on proliferation of cancer cells. In the examples the following cells were selected: human non-small cell lung cancer cell NCI-H1975 (expressing EGFR L858R/T790M double-mutant gene), human-derived non-small cell lung cancer cell PC-9 (expressing EGFR delE746_A750 mutant gene), human-derived non-small cell lung cancer cell HCC827 (expressing EGFR delE746_A750 mutant gene), human lung adenocarcinoma cell HCC4006 (expressing EGFR delE746_A750 mutant gene), human non-small cell lung cancer cell NCI-H3255 (expressing EGFR L858R mutant gene), human skin squamous carcinoma cell A431 (expressing wild-type EGFR gene), human non-small cell lung cancer cell A549 (expressing wild-type EGFR gene), human non-small cell lung cancer cell NCI-H460 (expressing wild-type EGFR gene), human non-small cell lung cancer cell NCI-H2122 (expressing wild-type EGFR gene), Chinese hamster ovary (CHO) cell (Cricetulus griseus, hamster, Chinese, ovary), Chinese hamster lung cell (CHL), mouse pro-B cell BaF3. The cells above were all purchased from (USA).
# (§2) The cells were incubated for 72 h, and then the number of viable cells was determined via quantitative determination with a microplate reader by using Cell Titer-Glo® (Promega, the USA) Luminescent Cell Viability Assay kit.
# [2] = system: BaF3-TEL-EGFR (stably expressing wild-type EGFR kinase); assay: Cell growth, Cell Titer-Glo, 72 h: BaF3-TEL-EGFR; conditions: Mus musculus, BaF3-TEL-EGFR cells, read-out: GI50
# Source text: (§3) In addition, this example further uses: mouse BaF3-TEL-EGFR (stably expressing wild-type EGFR kinase), mouse BaF3-TEL-EGFR-L858R (stably expressing EGFR L858R mutant kinase), mouse BaF3-TEL-EGFR-T790M (stably expressing EGFR T790M mutant kinase), mouse BaF3-FL-EGFR-DeI19 (stably expressing EGFR delE746_A750 mutant kinase), mouse BaF3-FL-EGFR-T790M-L858R (stably expressing EGFR T790M/L858R mutant kinase), mouse BaF3/P210 (stably expressing bcr/abl˜(P210) mutant kinase), mouse BaF3-TEL-ABL-T315I (stably expressing ABLT315I mutant kinase), mouse BaF3-FLT3-ITD (stably expressing FLT3/ITD mutant kinase), mouse BaF3-TEL-JAK2 (stably expressing JAK2 kinase), mouse BaF3-TEL-JAK3 (stably expressing JAK3 kinase), mouse BaF3-TPR-MET (stably expressing MET kinase), mouse BaF3-TEL-BLK (stably expressing BLK kinase), mouse BaF3-TEL-ABL (stably expressing ABL kinase), mouse BaF3-TEL-BMX (stably expressing BMX kinase), mouse BaF3-TEL-ALK (stably expressing ALK kinase). The above cell lines were all constructed by our laboratory according to the following method: the kinase region sequences of human […], EGFR L858R, EGFR T790M, EGFR delE746_A750, EGFR T790M/L858R, bcr/abl˜(P210), ABL T315I, FLT3/ITD, JAK2, JAK3, MET, BLK, ABL, BMX, ALK were amplified respectively by PCR, inserted respectively into MSCV-Puro vectors harboring N-terminal fragment and/or NPM fragment and/or TPR fragment (Clontech), then the vectors were stably transfected into mouse BaF3 cells by retrovirus methods and growth factor IL-3 was removed, eventually obtaining cell lines that are transferred protein (EGFR, EGFR L858R, EGFR T790M, EGFR delE746_A750, EGFR T790M/L858R, bcr/abl˜(P210), ABL T315I, FLT3/ITD, JAK2, JAK3, MET, BLK, ABL, BMX, ALK)-dependent.
# as §2
# [3] = system: PC-9 (expressing EGFR delE746_A750 mutant gene); assay: Cancer cell growth, Cell Titer-Glo, 72 h: PC-9; conditions: Homo sapiens; PC-9 cells, 72 h; read-out: GI50
# Source text: as §1, §2
# mouse pro-B cell BaF3 = assay: Cell growth, Cell Titer-Glo, 72 h: BaF3; conditions: BaF3 cells, 72 h, read-out: GI50
# Source text: as §1, §2
# [4] = system: A431 (expressing wild-type EGFR gene); assay: Cancer cell growth, Cell Titer-Glo, 72 h: A431; conditions: Homo sapiens, A-431; A431 cells, 72 h; read-out: GI50
# Source text: as §1, §2
# [5] = system: NCI-H3255 (expressing EGFR L858R mutant gene); assay: Cancer cell growth, Cell Titer-Glo, 72 h: NCI-H3255; conditions: Homo sapiens; NCI-H3255 cells, 72 h; read-out: GI50
# Source text: as §1, §2
# [6] = system: NCI-H1975 (expressing EGFR L858R/T790M double-mutant gene); assay: Cancer cell growth, Cell Titer-Glo, 72 h: NCI-H1975; conditions: Homo sapiens; NCI-H1975 cells, 72 h; read-out: GI50
# Source text: as §1, §2
# [7] = system: BaF3-FL-EGFR-T790M-L858R (stably expressing EGFR T790M/L858R mutant kinase); assay: Cell growth, Cell Titer-Glo, 72 h: BaF3-FL-EGFR-T790M-L858R; conditions: Mus musculus, BaF3-FL-EGFR-T790M-L858R cells
# Source text: as §3, §2
# [8] = system: HCC827 (expressing EGFR delE746_A750 mutant gene); assay: Cancer cell growth, Cell Titer-Glo, 72 h: HCC827; conditions: Homo sapiens; HCC827 cells, 72 h; read-out: GI50
# Source text: as §1, §2
SMILES,GI50 [1] [nM],GI50 [2] [nM],GI50 [3] [nM],GI50 (mouse pro-B cell BaF3) [nM],GI50 [4] [nM],GI50 [5] [nM],GI50 [6] [nM],GI50 [7] [nM],GI50 [8] [nM]
C=CC(=O)Nc1cc(Cn2nc(-c3ccc(F)c(Cl)c3)c3c(N)ncnc32)ccc1F [Compound 38],2800,6600,1700,4600,8700,3800,5100,,
"C=CC(=O)N1CCC[C@@H](n2nc(-c3ccc(OCc4cccc(F)c4)c(C#N)c3)c3c(N)ncnc32)C1 [Compound 16, (R)-1-(3-(4-amino-3-(3-cyano-4-((3-fluorobenzyl)oxy)phenyl)-1H-pyrazolo[3,4-d]pyrimidin-1-yl)piperidin-1-yl)prop-2-en-1-one]",,> 10000,51,> 10000,,28,,52,
"C=CC(=O)N1CCC[C@@H](n2nc(-c3ccc(OCc4ccc(C)nc4)c(Cl)c3)c3c(N)ncnc32)C1 [Compound 30, (R)-1-(3-(4-amino-3-(3-chloro-4-((6-methylpyridin-3-yl)methoxy)phenyl)-1H-pyrazolo[3,4-d]pyrimidin-1-yl)piperidin-1-yl)prop-2-en-1-one]",> 10000,3300,38,> 10000,> 10000,36,3,2,
C=CC(=O)N1CCC[C@@H](n2nc(-c3ccc(CN4CCN(C)CC4)cc3)c3c(N)ncnc32)C1 [Compound 20],> 10000,,7000,> 10000,,4900,> 10000,> 10000,
C=CC(=O)N1CCC[C@@H](n2nc(-c3ccc(OCc4cccc(F)c4)c(OC)c3)c3c(N)ncnc32)C1 [Compound 8],2700,,25,> 10000,,56,350,43,84
"C=CC(=O)N1CCC[C@@H](n2nc(-c3ccc(OCc4cccc(F)c4)nc3)c3c(N)ncnc32)C1 [Compound 19, (R)-1-(3-(4-amino-3-(6-((3-fluorobenzyl)oxy)pyridin-3-yl)-1H-pyrazolo[3,4-d]pyrimidin-1-yl)piperidin-1-yl)prop-2-en-1-one]",,,> 10000,> 10000,,> 10000,> 10000,,
"CN(C)C/C=C/C(=O)N1CCC[C@@H](n2nc(-c3ccc(F)c(Cl)c3)c3c(N)ncnc32)C1 [Compound 32, (R)-1-(3-(4-amino-3-(3-chloro-4-flurophenyl)-1H-pyrazolo[3,4-d]pyrimidin-1-yl)piperidin-1-yl)-4-(dimethylamino)but-2-en-1-one]",> 10000,690,170,4500,3900,330,710,130,
"C=CC(=O)N1CCC[C@@H](n2nc(-c3ccc(OCc4ccccn4)c(C(F)(F)F)c3)c3c(N)ncnc32)C1 [Compound 35, (R)-1-(3-(4-amino-3-(3-trifluoromethyl-4-(pyridin-2-ylmethoxy)phenyl)-1H-pyrazolo[3,4-d]pyrimidin-1-yl)piperidin-1-yl)prop-2-en-1-one]",3100,3600,180,> 10000,> 10000,46,56,< 0.3,

# Compounds with a lower GI50 [3], results first:
GI50 [1] [nM],GI50 [2] [nM],GI50 [3] [nM],GI50 (mouse pro-B cell BaF3) [nM],GI50 [4] [nM],GI50 [5] [nM],GI50 [6] [nM],GI50 [7] [nM],GI50 [8] [nM],SMILES
3400,3500,24,> 10000,> 10000,44,< 0.3,< 0.3,,"C=CC(=O)N1CCC[C@@H](n2nc(-c3ccc(OCc4ncc(C)c(OC)c4C)c(Cl)c3)c3c(N)ncnc32)C1 [Compound 36, (R)-1-(3-(4-amino-3-(3-chloro-4-((4-methoxy-3,5-dimethylpyridin-2-yl)methoxy)phenyl)-1H-pyrazolo[3,4-d]pyrimidin-1-yl)piperidin-1-yl)prop-2-en-1-one]"
,1400,16,2500,,9,38,< 0.3,,"C=CC(=O)N1CCC[C@@H](n2nc(-c3ccc(OCc4cccc(F)c4)c(C)c3)c3c(N)ncnc32)C1 [Compound 14, (R)-1-(3-(4-amino-3-(3-methyl-4-((3-fluorobenzyl)oxy)phenyl)-1H-pyrazolo[3,4-d]pyrimidin-1-yl)piperidin-1-yl)prop-2-en-1-one]"
,4200,14,8500,,20,,1,,"C=CC(=O)N1CCC[C@@H](n2nc(-c3ccc(OCc4ccccc4F)c(Cl)c3)c3c(N)ncnc32)C1 [Compound 18, (R)-1-(3-(4-amino-3-(3-chloro-4-((2-fluorobenzyl)oxy)phenyl)-1H-pyrazolo[3,4-d]pyrimidin-1-yl)piperidin-1-yl)prop-2-en-1-one]"
> 10000,2800,10,9800,> 10000,< 0.3,8,2,,"C=CC(=O)N1CCC[C@@H](n2nc(-c3ccc(OCc4nccs4)c(Cl)c3)c3c(N)ncnc32)C1 [Compound 28, (R)-1-(3-(4-amino-3-(3-chloro-4-(thiazol-2-ylmethoxy)phenyl)-1H-pyrazolo[3,4-d]pyrimidin-1-yl)piperidin-1-yl)prop-2-en-1-one]"
> 10000,2200,9,> 10000,> 10000,43,95,53,,"C=CC(=O)N1CCC[C@@H](n2nc(-c3ccc(F)c(Cl)c3)c3c(N)ncnc32)C1 [Compound 31, (R)-1-(3-(4-amino-3-(3-chloro-4-flurophenyl)-1H-pyrazolo[3,4-d]pyrimidin-1-yl)piperidin-1-yl)prop-2-en-1-one]"
3800,,7,4300,,< 0.3,7,< 0.3,,"C=CC(=O)N1CCC[C@@H](n2nc(-c3ccc(OCc4cc(F)ccc4F)c(Cl)c3)c3c(N)ncnc32)C1 [Compound 23, (R)-1-(3-(4-amino-3-(3-chloro-4-((2,5-difluorobenzyl)oxy)phenyl)-1H-pyrazolo[3,4-d]pyrimidin-1-yl)piperidin-1-yl)prop-2-en-1-one]"
> 10000,,6,1900,,< 0.3,1600,< 0.3,,"C=CC(=O)N1CCC[C@@H](n2nc(-c3ccc(OCc4cccc(F)c4)cc3F)c3c(N)ncnc32)C1 [Compound 24, (R)-1-(3-(4-amino-3-(2-fluoro-4-((3-fluorobenzyl)oxy)phenyl)-1H-pyrazolo[3,4-d]pyrimidin-1-yl)piperidin-1-yl)prop-2-en-1-one]"
